Measurements: PubChem BioAssay (NCI)
“And” between values parts separate entries of the source, which are not always exact repeats. Identical values can stand only once.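 Cultured in 96-well plates, cells were exposed to test compound for 48 hours across five concentrations. GI50 is the concentration that inhibits growth by half. The concentration for full growth arrest is given as TGI.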

Columns and labels:
Assay in all cases: NCI-60 cell line screen, 48 h
SW-620 colon = tested on: SW-620 colon
IGROV1 ovarian = tested on: IGROV1 ovarian
HOP-62 NSCLC = tested on: HOP-62 NSCLC
NCI-H226 lung = tested on: NCI-H226 lung
RXF 393 renal = tested on: RXF 393 renal
K-562 leukemia = tested on: K-562 leukemia
HT29 colon = tested on: HT29 colon
T-47D breast = tested on: T-47D breast
U251 CNS = tested on: U251 CNS
SNB-75 CNS = tested on: SNB-75 CNS

Row | Compound | GI50 (SW-620 colon) | TGI (SW-620 colon) | GI50 (IGROV1 ovarian) | TGI (IGROV1 ovarian) | GI50 (HOP-62 NSCLC) | TGI (HOP-62 NSCLC) | GI50 (NCI-H226 lung) | TGI (NCI-H226 lung) | GI50 (RXF 393 renal) | TGI (RXF 393 renal) | GI50 (K-562 leukemia) | TGI (K-562 leukemia) | GI50 (HT29 colon) | TGI (HT29 colon) | GI50 (T-47D breast) | TGI (T-47D breast) | GI50 (U251 CNS) | TGI (U251 CNS) | GI50 (SNB-75 CNS) | TGI (SNB-75 CNS)
1 | O=C(Nc1cccc(-n2cc(-c3ccncc3)c(-c3cc(O)cc(Cl)c3)n2)c1)c1cc(C(F)(F)F)cc(C(F)(F)F)c1 | 4.48 µM | > 100 µM | 7.96 µM | > 100 µM | 9.82 µM | > 100 µM | 16.1 µM | > 100 µM | 1.69 µM | 4.35 µM | 3.24 µM | > 100 µM | 2.5 µM | 37.7 µM | 2.99 µM | 94.5 µM | 3.23 µM | 24.4 µM | 2.8 µM | > 100 µM
2 | NS(=O)(=O)c1ccc(-c2cc3ccncc3cc2OCc2ccccc2)cc1 | > 22.9 µM | > 25 µM | > 25 µM | > 25 µM | 6.83 µM | > 25 µM | > 19.9 µM | > 25 µM | 7.16 µM | > 25 µM | > 19.6 µM | > 25 µM | > 16.4 µM | > 25 µM | > 19.4 µM | > 25 µM | > 21.5 µM | > 25 µM | 5.27 µM | > 25 µM
3 | O=C1c2sccc2-c2cccc3cccc1c23 (tested in a mixture with another compound) |  | 17.2 µM |  | 50.2 µM |  | > 100 µM |  | 33.9 µM |  | > 100 µM |  | 25.8 µM |  | 15.2 µM |  | 28.2 µM |  | 23 µM |  | 37.3 µM
4 | Cc1ccc(-c2nc([P+](c3ccccc3)(c3ccccc3)c3ccccc3)c(S(=O)(=O)c3ccc(C)cc3)o2)cc1 | 0.929 µM | 2.47 µM | 1.61 µM | 3.15 µM | 1.47 µM | 4.56 µM | 5.05 µM | 24.6 µM | 1.4 µM | 2.79 µM | 0.312 µM | 3.22 µM | 1.7 µM | 4.17 µM | 1.99 µM | 5.23 µM | 1.14 µM | 2.43 µM | 1.21 µM | 4.41 µM
5 | c1ccc2c(c1)Nc1ccncc1S2 | 21.2 µM | 92.6 µM | 22.8 µM | 99.6 µM | 19.5 µM | > 100 µM | 17.1 µM | > 100 µM | 11.9 µM | 32 µM | 29.4 µM | > 100 µM | 18.4 µM | > 100 µM | 22.4 µM | 96.3 µM | 27.2 µM | > 100 µM | 18.1 µM | 56.6 µM
6 | Cc1cc(N(CCCNc2ccnc3cc(Cl)ccc23)Cc2ccco2)nc(N2CCN(C)CC2)n1 | 2.82 µM | 12.2 µM | 2.39 µM | 12.3 µM | 3.65 µM | 14.3 µM | 12.4 µM | 24.8 µM | 1.79 µM | 3.55 µM | 2.07 µM | 10.4 µM | 2.73 µM | 11 µM | 2.15 µM | 5.68 µM | 2.67 µM | 6.92 µM | 1.29 µM | 5.56 µM
7 | COC(=O)[C@H]1CCCN1C(=O)[C@H]1CCCN1C(=O)[C@@H](Cc1c[nH]c2ccccc12)NC(=S)Nc1cc(C(F)(F)F)cc(C(F)(F)F)c1 | 2 µM | 4.62 µM | 1.88 µM | 4.16 µM | 2.01 µM | 3.83 µM | 3.08 µM | 11.7 µM | 1.34 µM | 2.72 µM | 2.4 µM | 5.52 µM | 1.75 µM | 3.65 µM | 3.27 µM | 16.4 µM | 1.54 µM | 2.9 µM | 1.52 µM | 5.82 µM
8 | O=C(O)CCC(=O)c1ccc2sc3ccccc3c2c1 |  | > 100 µM |  | > 100 µM |  | > 100 µM |  | > 100 µM |  | > 100 µM |  | > 100 µM |  | > 100 µM |  | > 100 µM |  | > 100 µM |  | > 100 µM
9 | O=C1OC(C(O)CO)C(O)=C1O (centres undefined) | 191 µM and 189 µM | 408 µM and 412 µM | 2040 µM and > 2490 µM | 4140 µM and > 4350 µM | 2420 µM and 2940 µM | 4800 µM and 6210 µM | 2150 µM and 4450 µM | 4870 µM and > 6830 µM | 1650 µM and 1750 µM | 3080 µM and 3400 µM | 378 µM and 337 µM | 1460 µM and 1210 µM | 2000 µM and 1870 µM | 4070 µM and 3750 µM | 2080 µM and 2100 µM | 4800 µM and 4380 µM | 1910 µM and 1840 µM | 3400 µM and 3550 µM | 2460 µM and > 4760 µM | 4050 µM and > 6140 µM
10 | Oc1cccc2ccc(N/N=C/c3cc(CN4CCOCC4)c(O)c4ncccc34)nc12 |  | 2.41 µM | 0.066 µM | 4.94 µM | 0.0281 µM | 1.44 µM | 0.533 µM | 5.57 µM | 0.048 µM | 1.66 µM | 0.0152 µM | 6.03 µM | 0.324 µM | 5.92 µM | 0.0274 µM | 0.682 µM | < 0.0154 µM | 3.74 µM | 0.0253 µM | 2 µM
11 | Oc1ccc(C(c2ccc(O)cc2)c2ccc(Br)cn2)cc1 | 35.9 µM | > 100 µM | 0.476 µM | 42.7 µM | 6.12 µM | > 62 µM | 0.243 µM | 0.651 µM | 0.217 µM | 0.532 µM | 14.4 µM | > 100 µM | 5.99 µM | 98.7 µM | 0.177 µM | 0.531 µM | 18.5 µM | 50.9 µM | 0.192 µM | 0.635 µM
12 | c1ccc(CCc2cccnc2)nc1 |  | > 100 µM |  | > 100 µM |  | > 100 µM |  | > 100 µM |  | > 100 µM |  | > 100 µM |  | > 100 µM |  | > 100 µM |  | > 100 µM |  | > 100 µM
13 | COC1C(N)C(OC2C(Oc3cccc4c(O)c5c(=O)oc6ccc(C)c7c(=O)oc(c34)c5c67)OC(C)C(O)C2(C)O)OC(C)C1O (centres undefined) |  | 1.61 µM |  | 0.132 µM |  | 0.258 µM |  | 0.169 µM |  | 0.138 µM |  | 1.56 µM |  | 0.436 µM |  | 1.43 µM |  | 0.789 µM |  | 0.356 µM
